# Experimental data taken from ChEMBL document CHEMBL3885881, “DrugMatrix”.
# Species: Rattus norvegicus
# Assay: DrugMatrix - Regimen: Daily Repeat
# Format: toxicity, organism-based, Sprague-Dawley
# Parameters: regimen Daily Repeat, gender Male, age 6-8 weeks
# Details: in vivo, po, route oral GAVAGE, vehicle .5 % CMC; for ABSOLUTE BASOPHIL / ABSOLUTE EOSINOPHIL / ABSOLUTE LYMPHOCYTE / ABSOLUTE MONOCYTE / ABSOLUTE SEGMENTED NEUTROPHIL / BASOPHIL / EOSINOPHIL / ERYTHROCYTE COUNT / HEMATOCRIT / HEMOGLOBIN / LEUKOCYTE COUNT / LYMPHOCYTE / MEAN CORPUSCULAR HEMOGLOBIN / MEAN CORPUSCULAR HEMOGLOBIN CONCENTRATION / MEAN CORPUSCULAR VOLUME / MONOCYTE / NEUTROPHIL / NUCLEATED RED BLOOD CELLS / PLATELET COUNT: tissue Blood; for ALANINE AMINOTRANSFERASE / ALBUMIN / ALKALINE PHOSPHATASE / ASPARTATE AMINOTRANSFERASE / BLOOD UREA NITROGEN / CARBON DIOXIDE / CHLORIDE / CHOLESTEROL / CREATINE PHOSPHOKINASE / CREATININE / GLUCOSE / LACTATE DEHYDROGENASE / LIPASE / PHOSPHORUS / POTASSIUM / SODIUM / TOTAL BILIRUBIN / TOTAL PROTEIN / URIC ACID: tissue Plasma
# [1] = 100 mg/kg, 120 h, dose level Low, time 5 day
# [2] = 1503 mg/kg, 72 h, dose level High, time 3 day
# [3] = 1503 mg/kg, 120 h, dose level High, time 5 day
smiles,measurement,setting,value
Cl.NC[C@H]1CC[C@H](C(=O)Oc2ccc(CCC(=O)O)cc2)CC1 [CETRAXATE HYDROCHLORIDE],ABSOLUTE BASOPHIL,[1],0 CELLS/uL
same,ABSOLUTE EOSINOPHIL,[1],157.33 CELLS/uL
same,ABSOLUTE LYMPHOCYTE,[1],16804.67 CELLS/uL
same,ABSOLUTE MONOCYTE,[1],401.67 CELLS/uL
same,ABSOLUTE SEGMENTED NEUTROPHIL,[1],1803 CELLS/uL
same,BASOPHIL,[1],0%
same,EOSINOPHIL,[1],0.67%
same,ERYTHROCYTE COUNT,[1],5.83 x10E6/uL
same,HEMATOCRIT,[1],37.17%
same,HEMOGLOBIN,[1],13.9 G/DL
same,LEUKOCYTE COUNT,[1],19.17 x10E3/uL
same,LYMPHOCYTE,[1],88.33%
same,MEAN CORPUSCULAR HEMOGLOBIN,[1],23.87 pg
same,MEAN CORPUSCULAR HEMOGLOBIN CONCENTRATION,[1],37.4 G/DL
same,MEAN CORPUSCULAR VOLUME,[1],63.73 fL
same,MONOCYTE,[1],2%
same,NEUTROPHIL,[1],9%
same,NUCLEATED RED BLOOD CELLS,[1],0 /100WBC
same,PLATELET COUNT,[1],1287.67 x10E3/uL
same,ALANINE AMINOTRANSFERASE,[1],53.67 u/L
same,ALBUMIN,[1],4.23 G/DL
same,ALKALINE PHOSPHATASE,[1],376.33 u/L
same,ASPARTATE AMINOTRANSFERASE,[1],93.67 u/L
same,BLOOD UREA NITROGEN,[1],19.33 mg/dL
same,CARBON DIOXIDE,[1],27 mmol/L
same,CHLORIDE,[1],104.67 MEQ/L
same,CHOLESTEROL,[1],78.67 mg/dL
same,CREATINE PHOSPHOKINASE,[1],449.67 u/L
same,CREATININE,[1],0.23 mg/dL
same,GLUCOSE,[1],160.33 mg/dL
same,LACTATE DEHYDROGENASE,[1],370.33 u/L
same,LIPASE,[1],9.67 u/L
same,PHOSPHORUS,[1],13.2 mg/dL
same,POTASSIUM,[1],6.82 MEQ/L
same,SODIUM,[1],143.93 MEQ/L
same,TOTAL BILIRUBIN,[1],0.17 mg/dL
same,TOTAL PROTEIN,[1],5.97 G/DL
same,URIC ACID,[1],2.07 mg/dL
same,ABSOLUTE BASOPHIL,[2],0 CELLS/uL
same,ABSOLUTE EOSINOPHIL,[2],121 CELLS/uL
same,ABSOLUTE LYMPHOCYTE,[2],13133.33 CELLS/uL
same,ABSOLUTE MONOCYTE,[2],333 CELLS/uL
same,ABSOLUTE SEGMENTED NEUTROPHIL,[2],979.33 CELLS/uL
same,BASOPHIL,[2],0%
same,EOSINOPHIL,[2],1%
same,ERYTHROCYTE COUNT,[2],5.73 x10E6/uL
same,HEMATOCRIT,[2],36.13%
same,HEMOGLOBIN,[2],13.17 G/DL
same,LEUKOCYTE COUNT,[2],14.57 x10E3/uL
same,LYMPHOCYTE,[2],90%
same,MEAN CORPUSCULAR HEMOGLOBIN,[2],23.03 pg
same,MEAN CORPUSCULAR HEMOGLOBIN CONCENTRATION,[2],36.43 G/DL
same,MEAN CORPUSCULAR VOLUME,[2],63.13 fL
same,MONOCYTE,[2],2.33%
same,NEUTROPHIL,[2],6.67%
same,NUCLEATED RED BLOOD CELLS,[2],0.33 /100WBC
same,PLATELET COUNT,[2],1198.67 x10E3/uL
same,ALANINE AMINOTRANSFERASE,[2],68 u/L
same,ALBUMIN,[2],4.1 G/DL
same,ALKALINE PHOSPHATASE,[2],375.67 u/L
same,ASPARTATE AMINOTRANSFERASE,[2],167.67 u/L
same,BLOOD UREA NITROGEN,[2],17.67 mg/dL
same,CARBON DIOXIDE,[2],25 mmol/L
same,CHLORIDE,[2],101.33 MEQ/L
same,CHOLESTEROL,[2],63.67 mg/dL
same,CREATINE PHOSPHOKINASE,[2],4593 u/L
same,CREATININE,[2],0.28 mg/dL
same,GLUCOSE,[2],200 mg/dL
same,LACTATE DEHYDROGENASE,[2],387 u/L
same,LIPASE,[2],10.33 u/L
same,PHOSPHORUS,[2],12.87 mg/dL
same,POTASSIUM,[2],6.87 MEQ/L
same,SODIUM,[2],143.37 MEQ/L
same,TOTAL BILIRUBIN,[2],0.3 mg/dL
same,TOTAL PROTEIN,[2],5.53 G/DL
same,URIC ACID,[2],2.37 mg/dL
same,ABSOLUTE BASOPHIL,[3],0 CELLS/uL
same,ABSOLUTE EOSINOPHIL,[3],225.33 CELLS/uL
same,ABSOLUTE LYMPHOCYTE,[3],13517.67 CELLS/uL
same,ABSOLUTE MONOCYTE,[3],404.33 CELLS/uL
same,ABSOLUTE SEGMENTED NEUTROPHIL,[3],1186 CELLS/uL
same,BASOPHIL,[3],0%
same,EOSINOPHIL,[3],1.33%
same,ERYTHROCYTE COUNT,[3],6.38 x10E6/uL
same,HEMATOCRIT,[3],39.27%
same,HEMOGLOBIN,[3],14.57 G/DL
same,LEUKOCYTE COUNT,[3],15.33 x10E3/uL
same,LYMPHOCYTE,[3],88.33%
same,MEAN CORPUSCULAR HEMOGLOBIN,[3],22.83 pg
same,MEAN CORPUSCULAR HEMOGLOBIN CONCENTRATION,[3],37.13 G/DL
same,MEAN CORPUSCULAR VOLUME,[3],61.57 fL
same,MONOCYTE,[3],2.67%
same,NEUTROPHIL,[3],7.67%
same,NUCLEATED RED BLOOD CELLS,[3],0 /100WBC
same,PLATELET COUNT,[3],1170.67 x10E3/uL
same,ALANINE AMINOTRANSFERASE,[3],59 u/L
same,ALBUMIN,[3],4.47 G/DL
same,ALKALINE PHOSPHATASE,[3],424.33 u/L
same,ASPARTATE AMINOTRANSFERASE,[3],93.33 u/L
same,BLOOD UREA NITROGEN,[3],17 mg/dL
same,CARBON DIOXIDE,[3],26.67 mmol/L
same,CHLORIDE,[3],105.67 MEQ/L
same,CHOLESTEROL,[3],58 mg/dL
same,CREATINE PHOSPHOKINASE,[3],497 u/L
same,CREATININE,[3],0.24 mg/dL
same,GLUCOSE,[3],175.33 mg/dL
same,LACTATE DEHYDROGENASE,[3],205.33 u/L
same,LIPASE,[3],9 u/L
same,PHOSPHORUS,[3],12.87 mg/dL
same,POTASSIUM,[3],6.66 MEQ/L
same,SODIUM,[3],144.8 MEQ/L
same,TOTAL BILIRUBIN,[3],0.2 mg/dL
same,TOTAL PROTEIN,[3],6.27 G/DL
same,URIC ACID,[3],1.93 mg/dL
